The values below come from PubChem BioAssay (NCI).

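Where inhibition never reached the appropriate level, the endpoint shown equals the highest concentration tested. Otherwise, values were interpolated linearly from a five-concentration, 48-hour dose response in 96-well plates. Here, GI50 denotes the concentration required for 50% inhibition of growth. The concentration for full growth arrest is given as TGI.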

Among the test systems are UO-31 renal; SR leukemia; SN12C renal; NCI-H226 lung; OVCAR-8 ovarian; SK-MEL-2 melanoma; SF-268 CNS; MDA-MB-231 breast; OVCAR-3 ovarian; K-562 leukemia.
What all share (assay): NCI anticancer screen, dose series, 48 h

Consider `C[C@@H]1OC(O)[C@@H](F)[C@H](O)[C@@H]1O` (some centres undefined), for which the GI50 in the experiment on UO-31 renal, in the experiment with SR leukemia, in the experiment with SN12C renal, with NCI-H226 lung, in the experiment with OVCAR-8 ovarian and in the experiment with SK-MEL-2 melanoma was greater than 100 µM in each case. The GI50 in the experiment with SF-268 CNS, in the experiment with MDA-MB-231 breast and with OVCAR-3 ovarian was greater than 100 µM throughout. Besides, the TGI in the experiment on UO-31 renal, in the experiment with SR leukemia, with SN12C renal, with NCI-H226 lung, in the experiment with OVCAR-8 ovarian and in the experiment on SK-MEL-2 melanoma was greater than 100 µM in each case. Moreover, the TGI in the experiment with SF-268 CNS, in the experiment on MDA-MB-231 breast and with OVCAR-3 ovarian was greater than 100 µM throughout.
For `NC(=O)c1ccc(I)c(N)c1`, the GI50 in the experiment with UO-31 renal, with SR leukemia, in the experiment with SN12C renal, with NCI-H226 lung, with OVCAR-8 ovarian and with SK-MEL-2 melanoma was greater than 100 µM each time. In addition, the GI50 with SF-268 CNS, in the experiment with MDA-MB-231 breast and in the experiment on OVCAR-3 ovarian was greater than 100 µM in each case. Moreover, the TGI with UO-31 renal, in the experiment with SR leukemia, in the experiment with SN12C renal, in the experiment on NCI-H226 lung, with OVCAR-8 ovarian and in the experiment on SK-MEL-2 melanoma was greater than 100 µM in each case. In addition, the TGI in the experiment on SF-268 CNS, with MDA-MB-231 breast and with OVCAR-3 ovarian was greater than 100 µM in each case.
For `COC(=O)c1c/c(=N\NC(=O)CC(=O)Nc2ccccc2OC)c2ccccc2o1`, the TGI in the experiment with UO-31 renal, in the experiment on SR leukemia, with SN12C renal, in the experiment with NCI-H226 lung, with K-562 leukemia and in the experiment on SK-MEL-2 melanoma was greater than 100 µM in each case. For the same compound, the TGI in the experiment with SF-268 CNS and with OVCAR-3 ovarian was greater than 100 µM in each case.
`OCC(O)CC[CH2][Sn]([Br])([c]1ccccc1)[c]1ccccc1` (centres undefined): the GI50 in the experiment on UO-31 renal, in the experiment with SR leukemia, with SN12C renal, with NCI-H226 lung, in the experiment with OVCAR-8 ovarian and in the experiment on K-562 leukemia was greater than 100 µM throughout. The GI50 in the experiment on SK-MEL-2 melanoma and with OVCAR-3 ovarian was greater than 100 µM in each case. Further, the TGI with UO-31 renal, in the experiment with SR leukemia, in the experiment on SN12C renal, in the experiment with NCI-H226 lung, with OVCAR-8 ovarian and in the experiment on K-562 leukemia was greater than 100 µM each time. Besides, the TGI in the experiment on SK-MEL-2 melanoma and in the experiment with OVCAR-3 ovarian was greater than 100 µM in each case.
Regarding `O=C1/C(=C/c2ccccc2)CNC/C1=C\c1ccccc1`, the TGI with UO-31 renal was 3.87 µM; in the experiment with SR leukemia, 0.536 µM; in the experiment with SN12C renal, 3.28 µM; with NCI-H226 lung, 6.18 µM; with OVCAR-8 ovarian it was 5.88 µM; with K-562 leukemia, greater than 23.8 µM. The TGI in the experiment on SK-MEL-2 melanoma turned out to be 9.18 µM; in the experiment on SF-268 CNS, 9.34 µM; in the experiment with OVCAR-3 ovarian it was 3.09 µM.
Turning to `COC12C=C(C)C(CC1)CC2C(=O)O` (centres undefined), the TGI in the experiment with UO-31 renal, in the experiment on SR leukemia, in the experiment on SN12C renal, with NCI-H226 lung, with OVCAR-8 ovarian and with K-562 leukemia was greater than 100 µM throughout. In addition, the TGI in the experiment on SK-MEL-2 melanoma, in the experiment on SF-268 CNS and in the experiment on OVCAR-3 ovarian was greater than 100 µM each time.
As to `CC1=NN(C(=O)Nc2ccccc2)C(=O)C2CCC(=O)N12` (centres undefined), the TGI in the experiment on UO-31 renal, with SR leukemia, in the experiment on SN12C renal, in the experiment on OVCAR-8 ovarian, with K-562 leukemia and in the experiment on SK-MEL-2 melanoma was greater than 100 µM in each case. Besides, the TGI with SF-268 CNS and with OVCAR-3 ovarian was greater than 100 µM each time.
Turning to `CC1=CC(=Nc2ccc(N(CCCl)CCCl)cc2)C=C(C)C1=O`, the GI50 was 0.288 µM with SR leukemia; 1.01 µM in the experiment on SN12C renal; 1.2 µM in the experiment with NCI-H226 lung; 1.21 µM in the experiment on K-562 leukemia; 1.48 µM in the experiment with SK-MEL-2 melanoma; 0.409 µM with SF-268 CNS. Further, the GI50 in the experiment with MDA-MB-231 breast is 2.85 µM; with OVCAR-3 ovarian it was 1.05 µM. The TGI in the experiment with SR leukemia is greater than 33.9 µM; with SN12C renal, greater than 26.7 µM; in the experiment with NCI-H226 lung, 4.83 µM; with K-562 leukemia, greater than 100 µM; in the experiment on SK-MEL-2 melanoma, 4.77 µM; in the experiment on SF-268 CNS, 2.85 µM. For the same compound, the TGI in the experiment on MDA-MB-231 breast is 9.32 µM; with OVCAR-3 ovarian, 3.13 µM.
Take `O=c1/c(=C/c2ccco2)sc2nc3ccccc3n12`: the TGI is greater than 10 µM in the experiment on UO-31 renal; greater than 10 µM in the experiment on SR leukemia; greater than 10 µM in the experiment on SN12C renal; greater than 100 µM with NCI-H226 lung; greater than 100 µM in the experiment with OVCAR-8 ovarian; greater than 100 µM in the experiment with K-562 leukemia. Further, the TGI with SK-MEL-2 melanoma was greater than 100 µM; in the experiment on SF-268 CNS it was greater than 10 µM; in the experiment with OVCAR-3 ovarian it was greater than 100 µM. Besides, the GI50 in the experiment on NCI-H226 lung, with OVCAR-8 ovarian, in the experiment with K-562 leukemia, in the experiment with SK-MEL-2 melanoma and in the experiment on OVCAR-3 ovarian was greater than 100 µM throughout.
As to `O=C(/C=C/c1c(O)ccc2ccccc12)c1cccc(O)c1`, the TGI in the experiment on UO-31 renal, in the experiment on SR leukemia, in the experiment on SN12C renal, in the experiment with NCI-H226 lung, in the experiment with OVCAR-8 ovarian and in the experiment with K-562 leukemia was greater than 100 µM throughout. For the same compound, the TGI with SK-MEL-2 melanoma, in the experiment with SF-268 CNS and in the experiment with OVCAR-3 ovarian was greater than 100 µM each time.
On to `O=C1C2c3[nH]c4ccccc4c3C3CCCCCCC3C2C(=O)N1c1ccccc1` (centres undefined), for which the TGI was 48.4 µM in the experiment on SR leukemia; 22.2 µM in the experiment with SN12C renal; 14.7 µM in the experiment with OVCAR-8 ovarian; 24.9 µM with K-562 leukemia; greater than 100 µM with SF-268 CNS; 17.2 µM in the experiment on OVCAR-3 ovarian.
Consider `O=c1[nH]ncc(Br)c1Br`, for which the GI50 in the experiment with UO-31 renal was 1.87 µM; in the experiment with SR leukemia, 0.911 µM; in the experiment with SN12C renal, 2.34 µM; in the experiment on NCI-H226 lung, 2.19 µM; with OVCAR-8 ovarian, 2.86 µM; with SK-MEL-2 melanoma it was 2.16 µM. For the same compound, the GI50 in the experiment on SF-268 CNS is 3.02 µM; in the experiment with MDA-MB-231 breast, 1.68 µM; with OVCAR-3 ovarian, 1.75 µM. The TGI in the experiment on UO-31 renal amounted to 4.51 µM; with SR leukemia, 3.9 µM; in the experiment with SN12C renal, 6.13 µM; in the experiment on NCI-H226 lung it was 5.96 µM; with OVCAR-8 ovarian, 10.8 µM; in the experiment with SK-MEL-2 melanoma, 5.62 µM. Moreover, the figures for the TGI with SF-268 CNS, with MDA-MB-231 breast and with OVCAR-3 ovarian were 12.6 µM, 3.56 µM and 3.18 µM, respectively.
